Test results from patent publication US8044204B2, “8-methoxy-9H-isothiazolo[5,4-b]quinoline-3,4-diones and related compounds as anti-infective agents” (Achillion Pharmaceuticals, Inc., priority 2005, dated 2011).
Values after ≈ are worked out from the molar mass of the structure shown. Structures can show the parent of a compound that is named as a salt. Where two headings read alike, the source gives them in different places.

Legend:
Type in all cases: cell-based
MRSA strain ATCC 700699 = test: Minimum Inhibitory Concentration (MIC) assay, Methicillin Resistant S. Aureus; settings: Staphylococcus aureus
Description: It has been unexpectedly discovered that substitution of compounds of Formula I and Formula II with a methoxy substituent at the R8 position increases the anti-microbial activity of the compound against Methicillin resistant Staphylococcus Aureus bacteria while at the same time decreasing the cellular toxicity of the compound. The simultaneous increase in compound activity and decrease in compound toxicity provides a greater therapeutic range for compounds of Formula I and Formula II in which R8 is methoxy; i.e. the range of doses of such compounds that will produce beneficial effects without harmful side effects is increased. […] Therapeutic range is determined using a standard assay of cytotoxicity such as the Alamar blue assay provided in Example 10.
The antimicrobial activity of the compounds of the invention may be evaluated by a number of methods, including the following visual minimum inhibitory concentration (MIC) assay. This assay determines the minimum concentration of compound required to inhibit growth of a bacterial strain.
Minimum Inhibitory Concentration (MIC) Assay
Whole-cell antibacterial activity is determined by broth microdilution using conditions recommended by the NCCLS (see National Committee for Clinical Laboratory Standards. 2001. Performance standards for antimicrobial susceptibility testing: 11th informational supplement. Vol. 21, no. 1, M100-S11. National Committee for Clinical Laboratory Standards, Wayne, Pa.). Test compounds are dissolved in DMSO and diluted 1:50 in Mueller-Hinton II broth (Becton-Dickinson) to produce a 256 μg/ml stock solution. In a 96-well microtiter plate, the compound solution is serially two-fold diluted in Mueller-Hinton II broth. After the compounds are diluted, a 50 μl aliquot of the test organism (˜1×10^6 cfu/mL) is added to each well of the microtiter plate. The final test concentrations ranges from 0.125-128 μg/mL. Inoculated plates are incubated in ambient air at 37° C. for 18 to 24 hours. The organisms selected for testing included laboratory strains S. aureus ATCC 29213 and E. coli ATCC 25922 (strains purchased from American Type Culture Collection, Manassas, Va.), S. aureus FQR700699, and Paeruginosa 27853. The minimum inhibitory concentration (MIC) is determined as the lowest concentration of compound that inhibited visible growth of the test organism.

[1] = Cell viability staining with Alamar Blue (cytotoxicity CC50), Hep2; settings: human
Method: To determine whether the microcidal effect observed against S. aureus and E. coli is specific to bacterial cells, compounds are screened for cell viability effects on several human cell types.
Optimal cell density is first determined by plating cells in a 96-well plate standard sterile tissue culture plates in 100 μl media, 10% FBS at six cell densities from 500 cells/well to 15,000 cells/well. A cell free well containing only media is used as a control. Cells are incubated at 37° C. in a 5% CO2 incubator for 24 hours. 10% culture volume (10 ul) of Alamar Blue (Biosource, DAL1100, 100 mL) is then added. Cells are incubated at 37° C. in a 5% CO2 incubator and read in a Victor V plate reader, 544 nm excitation, 590 nm emission, at 3, 4, and 24 hours after the addition of Alamar Blue. The cell number vs. change in fluorescence is plotted to determine linearity of signal vs. cell number. The optimal density varies between 500-15,000 cells/well depending on the specific cell type. The optimal density is selected based on the highest number of cells that is still in the linear response range.
Determination of Compound Cytotoxicity
Cells are plated at optimal cell density in a standard sterile tissue culture 96 well plate, and incubated at 37° C. O/N in a 5% CO2 incubator. 12 to 48 hours post-plating media is removed. The cells are washed 1 or 2 times with 1×PBS and replaced with fresh media containing the test compound in 1% DMSO. 24 to 72 hours after addition of compound, the media is removed, and the cells washed 1 to 2 times with 1×PBS. Fresh media containing 1/10 volume of Alamar Blue is then added. Plates are incubated 4 hours at 37° C. in a 5% CO2 incubator and read in a Victor V plate reader, 544 nm excitation, 590 nm emission.
Compounds are diluted to 20 micromolar in 1% DMSO and media and screened in duplicate to obtain single concentration cytotoxicity data. Eight concentration points from 0.78 micromolar to 100 micromolar, run in duplicate, are used to determine cyclotoxicity CC50 values. Cells with 1% DMSO and media are used as a negative control, compounds having a known CC50 against a particular cell type are used as positive controls.
The change in fluorescence vs. concentration of test compound is plotted to determine the cytotoxicity of the compound.
Sample media conditions, optimal plating densities, and positive control compounds for two cell types screened are presented in Table III.

S. aureus ATCC 29213 = test: Minimum Inhibitory Concentration (MIC) assay, S. aureus; settings: Staphylococcus aureus, ATCC29213; broth microdilution; read-out: MIC against S. Aureus
Outline: (§1)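 NCCLS broth microdilution in Mueller-Hinton II broth, two-fold dilutions giving final 0.125–128 μg/mL, inoculum ~1×10^6 cfu/mL. Incubated in ambient air at 37 °C for 18–24 h. MIC read as lowest concentration with no visible growth.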

E. coli ATCC 25922 = test: Minimum Inhibitory Concentration (MIC) assay, E. coli; settings: Escherichia coli, ATCC25922; broth microdilution; read-out: MIC against E. coli
Outline: as §1

in vitro = settings: Chinese hamster
[2] = R6 = F, R8 = Methoxy compounds, MRSA ATCC 700699, read-out: MRSA MIC
[3] = Hep2 cells (ATCC CCL-23), R6 = F, R8 = Methoxy compounds, Hep2 ATCC CCL-23, read-out: hep2 CC50
[4] = Hep2 cells (ATCC CCL-23), R6 = F, R8 = H compounds, Hep2 ATCC CCL-23, read-out: hep2 CC50
[5] = broth microdilution, read-out: MIC against Methicillin Resistant S. Aureus
[6] = R6 = F, R8 = H compounds, MRSA ATCC 700699, read-out: MRSA MIC

SMILES	MIC (MRSA strain ATCC 700699; [2]) [µg/mL]	MIC (S. aureus ATCC 29213) [µg/mL]	MIC (E. coli ATCC 25922) [µg/mL]	MIC (MRSA strain ATCC 700699; [5]) [µg/mL]	MIC (MRSA strain ATCC 700699; [6]) [µg/mL]	CC50 ([1]; R6 = F, R8 = Methoxy compounds, Hep2 ATCC CCL-23, read-out: hep2 CC50) [µM]	MIC (MRSA strain ATCC 700699; read-out: MRSA MIC) [µg/mL]	CC50 [1, 3] [µM]	CC50 [1, 4] [µM]	CC50 [1] [µM]	CC50 (in vitro) [µM]
COc1c(N2CCNCC2)c(F)cc2c(=O)c3c(=O)[nH]sc3n(C3CC3)c12 [Compound 38, 9-cyclopropyl-6-fluoro-8-methoxy-7-(piperazin-1-yl)isothia-zolo[5,4-b]quinoline-3,4(2H,9H)-dione]	4.8 (≈ 12.3 µM)	≤ 1	≤ 1	–	–	27	–	–	–	–	–
COc1c(N2CC3CCCNC3C2)c(F)cc2c(=O)c3c(=O)[nH]sc3n(C3CC3)c12 (stereo not drawn) [Compound 45, 9-cyclopropyl-6-fluoro-8-methoxy-7-(octahydro-pyrrolo[3,4-b]pyridin-6-yl)isothia-zolo[5,4-b]quinoline-3,4(2H,9H)-dione, hydrochloride]	–	≤ 1	≤ 1	–	–	–	2	93	–	–	–
O=c1[nH]sc2c1c(=O)c1cc(F)c(N3CC4CCCNC4C3)cc1n2C1CC1 (stereo not drawn) [Compound 46, 9-cyclopropyl-6-fluoro-7-(octahydro-pyrrolo[3,4-b]pyridin-6-yl)isothia-zolo[5,4-b]quinoline-3,4(2H,9H)-dione, hydrochloride]	–	≤ 1	≤ 1	–	–	–	4	–	4.7	–	–
COc1c(N2CCC(N(C)C)C2)c(F)cc2c(=O)c3c(=O)[nH]sc3n(C3CC3)c12 (stereo not drawn) [Compound 49, 9-cyclopropyl-7-(3-(dimethyl-amino)pyrrolidin-1-yl)-6-fluoro-8-methoxy-isothiazolo[5,4-b]quinoline-3,4(2H,9H)-dione]	4 (≈ 9.56 µM)	≤ 1	≤ 1	–	–	–	–	68	–	–	–
CC(C)(N)[C@@H]1CCN(c2cc3c(cc2F)c(=O)c2c(=O)[nH]sc2n3C2CC2)C1 [Compound 52, (R)-7-(3-(2-aminopropan-2-yl)pyrrolidin-1-yl)-9-cyclopropyl-6-fluoroisothia-zolo[5,4-b]quinoline-3,4(2H,9H)-dione, hydrochloride]	–	≤ 1	≤ 1	≤ 1	–	–	0.38	–	0.55	–	–
CNC(C)(C)[C@@H]1CCN(c2c(F)cc3c(=O)c4c(=O)[nH]sc4n(C4CC4)c3c2OC)C1 [Compound 76, (R)-9-cyclo-propyl-6-fluoro-8-methoxy-7-(3-(2-(methyl-amino)propan-2-yl)pyrrolidin-1-yl)isothia-zolo[5,4-b]quinoline-3,4(2H,9H)-dione]	0.13 (≈ 0.291 µM)	≤ 1	≤ 1	≤ 1	–	–	–	27	–	–	–
CC(C)(C)c1ccc(C(O)CCCN2CCC(C(O)(c3ccccc3)c3ccccc3)CC2)cc1 (stereo not drawn) [Terfenadine, reference compound]	–	–	–	–	–	–	–	–	–	3 to 5	4.3 to 6.5

More lines, main results first:

MIC (MRSA strain ATCC 700699; [2]) [µg/mL]	MIC (S. aureus ATCC 29213) [µg/mL]	MIC (E. coli ATCC 25922) [µg/mL]	MIC (MRSA strain ATCC 700699; [5]) [µg/mL]	MIC (MRSA strain ATCC 700699; [6]) [µg/mL]	SMILES	CC50 ([1]; R6 = F, R8 = Methoxy compounds, Hep2 ATCC CCL-23, read-out: hep2 CC50) [µM]	MIC (MRSA strain ATCC 700699; read-out: MRSA MIC) [µg/mL]	CC50 [1, 3] [µM]	CC50 [1, 4] [µM]	CC50 [1] [µM]	CC50 (in vitro) [µM]
0.1 (≈ 0.231 µM)	≤ 1	≤ 1	≤ 1	–	COc1c(N2CC[C@@H](C(C)(C)N)C2)c(F)cc2c(=O)c3c(=O)[nH]sc3n(C3CC3)c12 [Compound 53, (R)-7-(3-(2-aminopropan-2-yl)pyrrolidin-1-yl)-9-cyclopropyl-6-fluoro-8-methoxyiso-thiazolo[5,4-b]quinoline-3,4(2H,9H)-dione]	–	–	8.5	–	–	–
1.5 (≈ 3.47 µM)	≤ 1	≤ 1	–	–	COc1c(N2CC[C@H](C(C)(C)N)C2)c(F)cc2c(=O)c3c(=O)[nH]sc3n(C3CC3)c12 [Compound 58, (S)-7-(3-(2-aminopropan-2-yl)pyrrolidin-1-yl)-9-cyclopropyl-6-fluoro-8-methoxyiso-thiazolo[5,4-b]quinoline-3,4(2H,9H)-dione]	–	–	61	–	–	–
–	≤ 1	–	–	16 (≈ 39.8 µM)	CC(C)(N)[C@H]1CCN(c2cc3c(cc2F)c(=O)c2c(=O)[nH]sc2n3C2CC2)C1 [Compound 61, (S)-7-(3-(2-aminopropan-2-yl)pyrrolidin-1-yl)-9-cyclopropyl-6-fluoroiso-thiazolo[5,4-b]quinoline-3,4(2H,9H)-dione]	–	–	–	6.1	–	–
0.42 (≈ 1.04 µM)	≤ 1	≤ 1	≤ 1	–	COc1c(N2CC[C@@H](CN)C2)c(F)cc2c(=O)c3c(=O)[nH]sc3n(C3CC3)c12 [Compound 63, (S)-7-(3-(aminomethyl)-pyrrolidin-1-yl)-9-cyclopropyl-6-fluoro-8-methoxyiso-thiazolo[5,4-b]quinoline-3,4(2H,9H)-dione]	–	–	11	–	–	–
–	≤ 1	–	–	1 (≈ 2.67 µM)	NC[C@@H]1CCN(c2cc3c(cc2F)c(=O)c2c(=O)[nH]sc2n3C2CC2)C1 [Compound 64, (S)-7-(3-(aminomethyl)-pyrrolidin-1-yl)-9-cyclopropyl-6-fluoroiso-thiazolo[5,4-b]quinoline-3,4(2H,9H)-dione]	–	–	–	3.1	–	–
0.25 (≈ 0.618 µM)	≤ 1	≤ 1	≤ 1	–	COc1c(N2CC[C@H](CN)C2)c(F)cc2c(=O)c3c(=O)[nH]sc3n(C3CC3)c12 [Compound 67, (R)-7-(3-(aminomethyl)-pyrrolidin-1-yl)-9-cyclopropyl-6-fluoro-8-methoxyiso-thiazolo[5,4-b]quinoline-3,4(2H,9H)-dione]	–	–	11	–	–	–
–	≤ 1	≤ 1	–	1 (≈ 2.67 µM)	NC[C@H]1CCN(c2cc3c(cc2F)c(=O)c2c(=O)[nH]sc2n3C2CC2)C1 [Compound 68, (R)-7-(3-(aminomethyl)-pyrrolidin-1-yl)-9-cyclopropyl-6-fluoroiso-thiazolo[5,4-b]quinoline-3,4(2H,9H)-dione]	–	–	–	2.3	–	–
–	≤ 1	≤ 1	–	2 (≈ 4.8 µM)	CNC(C)(C)[C@@H]1CCN(c2cc3c(cc2F)c(=O)c2c(=O)[nH]sc2n3C2CC2)C1 [Compound 80, (R)-9-cyclo-propyl-6-fluoro-7-(3-(2-(methylamino)propan-2-yl)-pyrrolidin-1-yl)isothia-zolo[5,4-b]quinoline-3,4(2H,9H)-dione]	–	–	–	0.57	–	–
–	–	–	–	2 (≈ 5.15 µM)	CN(C)C1CCN(c2cc3c(cc2F)c(=O)c2c(=O)[nH]sc2n3C2CC2)C1 (stereo not drawn) [Compound 114, 9-cyclo-propyl-7-(3-(dimethyl-amino)pyrrolidin-1-yl)-6-fluoroiso-thiazolo[5,4-b]quinoline-3,4(2H,9H)-dione]	–	–	–	3	–	–
